Experimental data published in patent EP0550016A1, “Novel quinolone carboxylic acid derivatives and processes for preparing same” (KOREA RESEARCH INSTITUTE OF CHEMICAL TECHNOLOGY, priority 1991, dated 1993).
Converted amounts (≈) assume the structure as drawn. Read-outs that look alike come from different tables or passages of the source.

Tests used:
[1] = system: Streptococcus pyogenes 308 A; test: In vitro anti-bacterial activity test (MIC, two-fold dilution method) against the standard strains; assay type: cell-based; details: Table 1 strain 1: Streptococcus pyogenes 308 A
[2] = system: Streptococcus pyogenes 77 A; test: as above; assay type: cell-based; details: Table 1 strain 2: Streptococcus pyogenes 77 A; read-out: MIC
[3] = system: Streptococcus faecium MD 8b; test: as above; assay type: cell-based; details: Enterococcus faecium, MD8B; Table 1 strain 3: Streptococcus faecium MD 8b; read-out: MIC
[4] = system: Staphylococcus aureus SG 511; test: as above; assay type: cell-based; details: SG511; Table 1 strain 4: Staphylococcus aureus SG 511
[5] = system: Staphylococcus aureus 285; test: as above; assay type: cell-based; details: Table 1 strain 5: Staphylococcus aureus 285; read-out: MIC
[6] = system: Staphylococcus aureus 503; test: as above; assay type: cell-based; details: Table 1 strain 6: Staphylococcus aureus 503; read-out: MIC
Escherichia coli DC 0 [7] = test: as above; assay type: cell-based; details: DC0; Table 1 strain 7: Escherichia coli DC 0
Escherichia coli DC 0 [8] = test: as above; assay type: cell-based; details: DC0; Table 1 strain 8: Escherichia coli DC 0
Escherichia coli DC 2 = test: as above; assay type: cell-based; details: DC2
Escherichia coli OTEM = test: as above; assay type: cell-based; details: Table 1 strain 10: Escherichia coli OTEM
Escherichia coli 1507 E = test: as above; assay type: cell-based; details: Table 1 strain 11: Escherichia coli 1507 E
[9] = system: Pseudomonas aeruginosa 9027; test: as above; assay type: cell-based; details: Table 1 strain 12: Pseudomonas aeruginosa 9027
[10] = system: Pseudomonas aeruginosa 1592 E; test: as above; assay type: cell-based; details: Table 1 strain 13: Pseudomonas aeruginosa 1592 E
[11] = system: Pseudomonas aeruginosa 1771; test: as above; assay type: cell-based; details: Table 1 strain 14: Pseudomonas aeruginosa 1771
[12] = system: Pseudomonas aeruginosa 1771 M; test: as above; assay type: cell-based; details: Table 1 strain 15: Pseudomonas aeruginosa 1771 M
Salmonella typhimurium = test: as above; assay type: cell-based; details: Salmonella enterica; Table 1 strain 16: Salmonella typhimurium
[13] = system: Klebsiella aerogenes 1082 E; test: as above; assay type: cell-based; details: Table 1 strain 17: Klebsiella aerogenes 1082 E
[14] = system: Klebsiella aerogenes 1522 E; test: as above; assay type: cell-based; details: Table 1 strain 18: Klebsiella aerogenes 1522 E
[15] = system: Enterobacter cloacae P 99; test: as above; assay type: cell-based; details: P99; Table 1 strain 19: Enterobacter cloacae P 99
[16] = system: Enterobacter cloacae 1321 E; test: as above; assay type: cell-based; details: Table 1 strain 20: Enterobacter cloacae 1321 E
P. mirabilis = test: Preventive effect against the systemic infection; assay type: in vivo; details: Proteus mirabilis, 168 h, NMRI mice, survival on day 7, read-out: ED₅₀
Experimental: (§1) 10 fold of the pathogen which leads to 100% lethality were injected intraperitoneally to male and female NMRI mice weighing 18 to 20g. Immediately and after 4 hours, the dose of test compounds which was determined by two-fold serial dilution method was administered orally or subcutaneously; and on day 7, the effectiveness was evaluated in terms of ED₅₀ calculated from the number of survived mice by the probit analysis.

S. aureus 17740 = test: Preventive effect against the systemic infection; assay type: in vivo; details: Staphylococcus aureus, 168 h, NMRI mice, survival on day 7, read-out: ED₅₀
Experimental: as §1

Acute Toxicity Test = details: mouse, in vivo, female ICR mice, day 14, read-out: Acute Toxicity(LD₅₀)
Experimental: Test compounds were administered to female ICR mice weighing 20 to 25g and on day 14, LD₅₀ was calculated from the number of survived mice by the probit analysis.

[17] = Table 1 strain 9: Escherichia coli DC 2, read-out: MIC

SMILES	MIC [1] [µg/mL]	MIC [2] [µg/mL]	MIC [3] [µg/mL]	MIC [4] [µg/mL]	MIC [5] [µg/mL]	MIC [6] [µg/mL]	MIC (Escherichia coli DC 0 [7]) [µg/mL]	MIC (Escherichia coli DC 0 [8]) [µg/mL]	MIC (Escherichia coli DC 2; [17]) [µg/mL]	MIC (Escherichia coli OTEM) [µg/mL]	MIC (Escherichia coli 1507 E) [µg/mL]	MIC [9] [µg/mL]	MIC [10] [µg/mL]	MIC [11] [µg/mL]	MIC [12] [µg/mL]	MIC (Salmonella typhimurium) [µg/mL]	MIC [13] [µg/mL]	MIC [14] [µg/mL]	MIC [15] [µg/mL]	MIC [16] [µg/mL]	other results
NC1CC12CCN(c1c(F)cc3c(=O)c(C(=O)O)cn(C4CC4)c3c1Cl)C2 (stereo not drawn) [Example 3, 7-(1-amino-5-azaspiro[2,4]heptane-5-yl)-8-chloro-1-cyclopropyl-6-fluoro-1,4-dihydro-4-oxoquinoline-3-carboxylic acid]	0.098 (≈ 0.25 µM)	0.025 (≈ 0.0638 µM)	0.391 (≈ 0.998 µM)	0.025 (≈ 0.0638 µM)	0.007 (≈ 0.0179 µM)	0.004 (≈ 0.0102 µM)	< 0.002	0.195 (≈ 0.498 µM)	0.025 (≈ 0.0638 µM)	0.007 (≈ 0.0179 µM)	0.025 (≈ 0.0638 µM)	0.781 (≈ 1.99 µM)	0.781 (≈ 1.99 µM)	0.781 (≈ 1.99 µM)	0.195 (≈ 0.498 µM)	0.004 (≈ 0.0102 µM)	< 0.002	0.004 (≈ 0.0102 µM)	0.004 (≈ 0.0102 µM)	< 0.002	ED50 (P. mirabilis; Oral Administration): 2.58 mg/kg; ED50 (P. mirabilis; sc, Subcutaneous Injection): 0.63 mg/kg
NC1CC12CCN(c1c(F)cc3c(=O)c(C(=O)O)cn(C4CC4)c3c1F)C2 (stereo not drawn) [Example 1, 7-(1-amino-5-azaspiro[2,4]heptane-5-yl)-1-cyclopropyl-6,8-difluoro-1,4-dihydro-4-oxoquinoline-3-carboxylic acid]	0.195 (≈ 0.519 µM)	0.098 (≈ 0.261 µM)	0.195 (≈ 0.519 µM)	0.025 (≈ 0.0666 µM)	0.025 (≈ 0.0666 µM)	0.025 (≈ 0.0666 µM)	0.004 (≈ 0.0107 µM)	0.195 (≈ 0.519 µM)	0.049 (≈ 0.131 µM)	0.013 (≈ 0.0346 µM)	0.013 (≈ 0.0346 µM)	0.781 (≈ 2.08 µM)	0.391 (≈ 1.04 µM)	0.391 (≈ 1.04 µM)	0.195 (≈ 0.519 µM)	0.013 (≈ 0.0346 µM)	0.004 (≈ 0.0107 µM)	0.013 (≈ 0.0346 µM)	0.013 (≈ 0.0346 µM)	0.004 (≈ 0.0107 µM)	ED50 (P. mirabilis; Oral Administration): 7.13 mg/kg; ED50 (P. mirabilis; sc, Subcutaneous Injection): 1.36 mg/kg; ED50 (S. aureus 17740; Oral Administration): 128 mg/kg; ED50 (S. aureus 17740; sc, Subcutaneous Injection): 16.8 mg/kg; LD50 (Acute Toxicity Test; ip, Intraperitoneal Injection): 605 mg/kg; LD50 (Acute Toxicity Test; Oral Administration): 3800 mg/kg
CC(O)C(=O)O.NC1CC12CCN(c1c(F)cc3c(=O)c(C(=O)O)cn(C4CC4)c3c1F)C2 (stereo not drawn) [Example 2, 7-(1-amino-5-azaspiro[2,4]heptane-5-yl)-1-cyclopropyl-6,8-difluoro-1,4-dihydro-4-oxoquinoline-3-carboxylic acid lactate]	0.195	0.098	0.098	0.025	0.025	0.025	0.004	0.195		0.025	0.025	0.781	0.781	0.781	0.098	0.013	0.013	0.025	0.013	0.007	MIC (Escherichia coli DC 2; Escherichia coli): 0.049 µg/mL; ED50 (S. aureus 17740; Oral Administration): 49.7 mg/kg; ED50 (S. aureus 17740; sc, Subcutaneous Injection): 97.6 mg/kg; LD50 (Acute Toxicity Test; ip, Intraperitoneal Injection): 580 mg/kg; LD50 (Acute Toxicity Test; Oral Administration): 3800 mg/kg
